Source: patent US4349545A, “Novel erythromycin a derivatives” (Roussel Uclaf, priority 1980, dated 1982)
Converted amounts (≈) assume the structure as drawn. Like-named read-outs stand apart in the source and are kept apart here.

Experiments:
[1] = tested on: Streptococcus faecalis 5432; assay: serial dilution liquid medium MIC, Streptococcus faecalis 5432; type: cell-based; conditions: Enterococcus faecalis, 24 hours at 37° C., read-out: minimum inhibiting concentration (MIC)
Description: (§1) The method was a serial dilution of liquid medium test wherein a series of tubes were prepared containing the same amount of sterile nutritive medium and increasing amounts of the test product was distributed in each tube. The tubes were then seeded with a bacterial strain and incubated for 24 hours in an oven at 37° C. The degree of inhibition was determined by transillumination to determine the minimum inhibiting concentration (MIC) express in μg/ml and the results are reported in the following Tables.

[2] = tested on: Staphylococcus aureus ATCC 6538; assay: serial dilution liquid medium MIC, Staphylococcus aureus ATCC 6538 Pen-Sensibles; type: cell-based; conditions: read-out: minimum inhibiting concentration (MIC)
Description: as §1

[3] = tested on: Bacillus subtilis ATCC 6 633; assay: serial dilution liquid medium MIC, Bacillus subtilis ATCC 6 633; type: cell-based; conditions: ATCC6, 24 hours at 37° C., read-out: minimum inhibiting concentration (MIC)
Description: as §1

[4] = tested on: Staphylococcus aureus No. 54,146; assay: In vivo activity in mice experimentally infected with Staphylococcus aureus No. 54,146; conditions: groups of 10 mice
Description: The test was effected with the compounds of the invention and erythromycin as a reference on groups of 10 mice weighing about 21 g experimentally infected with Staphylococcus aureus No. 54,146 by intraperitoneal administration of 0.5 ml of a 22 hour culture of the said organism in bouillon with a pH of 7 diluted to 1/6 with physiological water. The test compounds were orally administrated to the mice 1,5 and 24 hours after the infection and the mortality on the 8th day was determined.

[5] = tested on: Staphylococcus aureus exp. n° 54 146; assay: serial dilution liquid medium MIC, Staphylococcus aureus exp. n° 54 146; type: cell-based; conditions: Staphylococcus aureus exp. 54 146; 24 hours at 37° C.; read-out: minimum inhibiting concentration (MIC)
Description: as §1

[6] = tested on: Streptococcus faecalis 99 F 74; assay: serial dilution liquid medium MIC, Streptococcus faecalis 99 F 74; type: cell-based; conditions: Enterococcus faecalis, 99F74, 24 hours at 37° C., read-out: minimum inhibiting concentration (MIC)
Description: as §1

[7] = tested on: Staphylococcus aureus UC 1128; assay: serial dilution liquid medium MIC, Staphylococcus aureus UC 1128 pen-resistant; type: cell-based; conditions: read-out: minimum inhibiting concentration (MIC)
Description: as §1

[8] = tested on: Streptococcus pyogenes A 561; assay: serial dilution liquid medium MIC, Streptococcus pyogenes A 561; type: cell-based; conditions: A561, 24 hours at 37° C., read-out: minimum inhibiting concentration (MIC)
Description: as §1

[9] = tested on: Streptococcus faecalis 5435; assay: serial dilution liquid medium MIC, Streptococcus faecalis 5435; type: cell-based; conditions: Enterococcus faecalis, 24 hours at 37° C., read-out: minimum inhibiting concentration (MIC)
Description: as §1

[10] = tested on: Staphylococcus aureus 1061; assay: serial dilution liquid medium MIC, Staphylococcus aureus 1061 pen-sensibles; type: cell-based; conditions: 24 hours at 37° C., read-out: minimum inhibiting concentration (MIC)
Description: as §1

[11] = tested on: Streptococcus pyrogenes A561; assay: In vivo activity in mice experimentally infected with Streptococcus pyrogenes A561; conditions: groups of 10 male mice
Description: In a second test, groups of 10 male mice weighing about 21 g were experimentally infected by an intraperitoneal injection of 0.5 ml of a 22 hour culture of Streptococcus pyrogenes A561 in Todd Hewitt bouillon with a pH of 7 diluted to 1/1000 with physiological water. The compounds of Examples 1 or 5 were administered orally 1,5 and 24 hours after the infection and the number of mice living on the fifth day was determined.

[12] = ATCC6538, Staphylococcus aureus ATCC 6538 Pen-Sensibles, 24 hours at 37° C.
[13] = dose 0,5mg oral, 1,5 and 24 hours after infection
[14] = dose 0,25mg oral, 1,5 and 24 hours after infection
[15] = dose 0,75mg oral, 1,5 and 24 hours after infection
[16] = dose 1mg oral, 1,5 and 24 hours after infection
[17] = UC1128, Staphylococcus aureus UC 1128 pen-resistant, 24 hours at 37° C.
[18] = Staphylococcus aureus, ATCC6538, 24 h

MIC [1] | MIC [2, 12] | MIC [5] | MIC [6] | MIC [7, 17] | MIC [8] | MIC [9] | MIC [10] | SMILES | MIC [3] | No. of mice living on the 8th day [4, 13] | No. of mice living on the 8th day [4, 14] | No. of mice living on the 8th day [4, 15] | No. of mice living on the 8th day [4, 16] | MIC [2, 18] | No. of mice alive on 5th day ([11]; dose 0.1 mg oral, 1,5 and 24 hours after infection) | No. of mice alive on 5th day ([11]; dose 0.5 mg oral, 1,5 and 24 hours after infection) | No. of mice alive on 5th day ([11]; dose 1 mg oral, 1,5 and 24 hours after infection) | MIC ([7]; Staphylococcus aureus, UC1128, 24 h)
0.5 µg/mL (≈ 0.587 µM) | 2 µg/mL (≈ 2.35 µM) | 2 µg/mL (≈ 2.35 µM) | 0.2 µg/mL (≈ 0.235 µM) | 3 µg/mL (≈ 3.52 µM) | 0.05 µg/mL (≈ 0.0587 µM) | – | – | CCOCCOCON=C1[C@H](C)C[C@@](C)(O)[C@H](O[C@@H]2O[C@H](C)C[C@H](N(C)C)[C@H]2O)[C@@H](C)[C@H](O[C@H]2C[C@@](C)(OC)[C@@H](O)[C@H](C)O2)[C@@H](C)C(=O)O[C@H](CC)[C@@](C)(O)[C@H](O)[C@H]1C [Example 4, 9-[0-(2-ethoxyethoxymethyl)-oxime] of erythromycin] | 0.5 µg/mL (≈ 0.587 µM) | 4 mice | 0 mice | 9 mice | 10 mice | – | – | – | – | –
0.4 µg/mL (≈ 0.479 µM) | – | 0.4 µg/mL (≈ 0.479 µM) | 0.2 µg/mL (≈ 0.24 µM) | 0.6 µg/mL (≈ 0.719 µM) | 0.05 µg/mL (≈ 0.0599 µM) | 2 µg/mL (≈ 2.4 µM) | 0.4 µg/mL (≈ 0.479 µM) | CC[C@H]1OC(=O)[C@H](C)[C@@H](O[C@H]2C[C@@](C)(OC)[C@@H](O)[C@H](C)O2)[C@H](C)[C@@H](O[C@@H]2O[C@H](C)C[C@H](N(C)C)[C@H]2O)[C@](C)(O)C[C@@H](C)C(=NOCC2OCCO2)[C@H](C)[C@@H](O)[C@]1(C)O [Example 30, 9-[0-{(1,3-dioxolan-2-yl)-methyl}-oxime] of erythromycin] | – | 7 mice | 2 mice | 10 mice | – | – | – | – | – | –
0.2 µg/mL (≈ 0.232 µM) | – | 0.6 µg/mL (≈ 0.696 µM) | 0.4 µg/mL (≈ 0.464 µM) | 1 µg/mL (≈ 1.16 µM) | 0.05 µg/mL (≈ 0.058 µM) | 1 µg/mL (≈ 1.16 µM) | 0.4 µg/mL (≈ 0.464 µM) | CC[C@H]1OC(=O)[C@H](C)[C@@H](O[C@H]2C[C@@](C)(OC)[C@@H](O)[C@H](C)O2)[C@H](C)[C@@H](O[C@@H]2O[C@H](C)C[C@H](N(C)C)[C@H]2O)[C@](C)(O)C[C@@H](C)C(=NOCCN2CCOCC2)[C@H](C)[C@@H](O)[C@]1(C)O [Example 35, 9-[O-(2-{morpholin-4-yl}-ethyl)oxime] of erythromycin] | – | 8 mice | 2 mice | 9 mice | 10 mice | – | – | – | – | –
0.1 µg/mL (≈ 0.12 µM) | – | 0.5 µg/mL (≈ 0.599 µM) | 0.1 µg/mL (≈ 0.12 µM) | 0.5 µg/mL (≈ 0.599 µM) | ≤ 0.01 µg/mL | 0.5 µg/mL (≈ 0.599 µM) | 0.2 µg/mL (≈ 0.24 µM) | CC[C@H]1OC(=O)[C@H](C)[C@@H](O[C@H]2C[C@@](C)(OC)[C@@H](O)[C@H](C)O2)[C@H](C)[C@@H](O[C@@H]2O[C@H](C)C[C@H](N(C)C)[C@H]2O)[C@](C)(O)C[C@@H](C)C(=NOC(C)CN(C)C)[C@H](C)[C@@H](O)[C@]1(C)O (some centres unmarked) [Example 36, 9-[O-(2-dimethylamino-1-methyl-ethyl)-oxime] of erythromycin] | – | 9 mice | 3 mice | 10 mice | – | – | – | – | – | –
0.1 µg/mL (≈ 0.118 µM) | – | 0.6 µg/mL (≈ 0.708 µM) | 0.2 µg/mL (≈ 0.236 µM) | 1 µg/mL (≈ 1.18 µM) | 0.1 µg/mL (≈ 0.118 µM) | 0.6 µg/mL (≈ 0.708 µM) | 0.6 µg/mL (≈ 0.708 µM) | CC[C@H]1OC(=O)[C@H](C)[C@@H](O[C@H]2C[C@@](C)(OC)[C@@H](O)[C@H](C)O2)[C@H](C)[C@@H](O[C@@H]2O[C@H](C)C[C@H](N(C)C)[C@H]2O)[C@](C)(O)C[C@@H](C)C(=NOCC(=O)C(C)(C)C)[C@H](C)[C@@H](O)[C@]1(C)O [Example 15, 9-[0-(3,3-dimethyl-2-oxo-butyl)-oxime] of erythromycin] | – | 9 mice | 1 mice | 10 mice | – | – | – | – | – | –
0.2 µg/mL (≈ 0.244 µM) | 0.5 µg/mL (≈ 0.609 µM) | 0.5 µg/mL (≈ 0.609 µM) | 0.2 µg/mL (≈ 0.244 µM) | 1 µg/mL (≈ 1.22 µM) | 0.1 µg/mL (≈ 0.122 µM) | – | – | CCOCCON=C1[C@H](C)C[C@@](C)(O)[C@H](O[C@@H]2O[C@H](C)C[C@H](N(C)C)[C@H]2O)[C@@H](C)[C@H](O[C@H]2C[C@@](C)(OC)[C@@H](O)[C@H](C)O2)[C@@H](C)C(=O)O[C@H](CC)[C@@](C)(O)[C@H](O)[C@H]1C [Example 3, 9-[0-(2-ethoxyethyl)-oxime] of erythromycin] | 0.2 µg/mL (≈ 0.244 µM) | 7 mice | – | 9 mice | 9 mice | – | – | – | – | –

SMILES | MIC [1] | MIC [2, 12] | MIC [5] | MIC [6] | MIC [7, 17] | MIC [8] | MIC [9] | MIC [10] | MIC [3] | No. of mice living on the 8th day [4, 13] | No. of mice living on the 8th day [4, 14] | No. of mice living on the 8th day [4, 15] | No. of mice living on the 8th day [4, 16] | MIC [2, 18] | No. of mice alive on 5th day ([11]; dose 0.1 mg oral, 1,5 and 24 hours after infection) | No. of mice alive on 5th day ([11]; dose 0.5 mg oral, 1,5 and 24 hours after infection) | No. of mice alive on 5th day ([11]; dose 1 mg oral, 1,5 and 24 hours after infection) | MIC ([7]; Staphylococcus aureus, UC1128, 24 h)
CC[C@H]1OC(=O)[C@H](C)[C@@H](O[C@H]2C[C@@](C)(OC)[C@@H](O)[C@H](C)O2)[C@H](C)[C@@H](O[C@@H]2O[C@H](C)C[C@H](N(C)C)[C@H]2O)[C@](C)(O)C[C@@H](C)C(=NOCOCc2ccccc2)[C@H](C)[C@@H](O)[C@]1(C)O [Example 7, 9-[0-benzyloxymethoxy-oxime] of erythromycin] | 0.1 µg/mL (≈ 0.115 µM) | – | 0.5 µg/mL (≈ 0.575 µM) | 0.1 µg/mL (≈ 0.115 µM) | 1 µg/mL (≈ 1.15 µM) | 0.05 µg/mL (≈ 0.0575 µM) | – | – | 0.1 µg/mL (≈ 0.115 µM) | – | – | – | – | 0.2 µg/mL (≈ 0.23 µM) | – | – | – | –
CC[C@H]1OC(=O)[C@H](C)[C@@H](O[C@H]2C[C@@](C)(OC)[C@@H](O)[C@H](C)O2)[C@H](C)[C@@H](O[C@@H]2O[C@H](C)C[C@H](N(C)C)[C@H]2O)[C@](C)(O)C[C@@H](C)C(=NOCCN(C)C)[C@H](C)[C@@H](O)[C@]1(C)O [Example 5, 9-[0-(2-dimethylaminoethyl)-oxime] of erythromycin] | 0.05 µg/mL (≈ 0.061 µM) | 1 µg/mL (≈ 1.22 µM) | 1 µg/mL (≈ 1.22 µM) | 0.05 µg/mL (≈ 0.061 µM) | 1 µg/mL (≈ 1.22 µM) | ≤ 0.02 µg/mL | – | – | 0.5 µg/mL (≈ 0.61 µM) | 8 mice | 2 mice | 10 mice | – | – | 10 mice | – | – | –
CC[C@H]1OC(=O)[C@H](C)[C@@H](O[C@H]2C[C@@](C)(OC)[C@@H](O)[C@H](C)O2)[C@H](C)[C@@H](O[C@@H]2O[C@H](C)C[C@H](N(C)C)[C@H]2O)[C@](C)(O)C[C@@H](C)C(=NOCOCCOC)[C@H](C)[C@@H](O)[C@]1(C)O [Example 1, 9-[0-(2-methoxyethoxy)-methyloxime] of erythromycin] | 0.2 µg/mL (≈ 0.239 µM) | – | 1 µg/mL (≈ 1.19 µM) | 0.2 µg/mL (≈ 0.239 µM) | 2 µg/mL (≈ 2.39 µM) | 0.05 µg/mL (≈ 0.0597 µM) | – | – | 0.2 µg/mL (≈ 0.239 µM) | 10 mice | 7 mice | – | – | 0.5 µg/mL (≈ 0.597 µM) | – | 2 mice | 10 mice | –
CC[C@H]1OC(=O)[C@H](C)[C@@H](O[C@H]2C[C@@](C)(OC)[C@@H](O)[C@H](C)O2)[C@H](C)[C@@H](O[C@@H]2O[C@H](C)C[C@H](N(C)C)[C@H]2O)[C@](C)(O)C[C@@H](C)C(=NOCCOc2ccc(Cl)cc2)[C@H](C)[C@@H](O)[C@]1(C)O [Example 2, 9-[0-(2-{4-chlorophenoxy}-ethyl)-oxime] of erythromycin] | 0.1 µg/mL (≈ 0.111 µM) | – | 0.5 µg/mL (≈ 0.553 µM) | 0.1 µg/mL (≈ 0.111 µM) | – | ≤ 0.02 µg/mL | – | – | 0.2 µg/mL (≈ 0.221 µM) | – | – | – | – | 0.1 µg/mL (≈ 0.111 µM) | – | – | – | 1 µg/mL (≈ 1.11 µM)
